# Assay results taken from patent publication US12558428B2, “Heterobifunctional compounds and their use in treating disease” (Halda Therapeutics OpCo, Inc., priority 2024, dated 2026).
# System: T-Rex 293 cells having increased expression of estrogen receptor alpha protein
# Test: Cellular growth inhibition assay, T-Rex 293 cells, (+) doxycycline
# Type: cell-based
# Conditions: T-REx-293, 72 h, Table 7-A; T-Rex 293 cells with doxycycline (increased ERα expression); 72 hours; CellTiter-Glo; read-out: (+) Dox GI50
# In short: (§1)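 ERα overexpression was switched on by 3 ng/mL doxycycline in a stably transfected T-Rex 293 clone, while uninduced cells served as the comparison line. Proliferation over 72 h of compound treatment was assessed by ATP luminescence, and GI50 values came from four-parameter curves.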
row,SMILES,GI50 [nM]
1,Cc1sc2c(c1C)C(c1ccc(OC3CC4(CCN(c5ccc([C@@H]6c7ccc(O)cc7CC[C@@H]6c6ccccc6)cc5)CC4)C3)cc1)=N[C@@H](C)c1nnc(C)n1-2 [III-90],500 to 2500
2,Cc1sc2c(c1C)C(c1ccc(N3CCC(CN4CC(COc5ccc([C@@H]6c7ccc(O)cc7CC[C@@H]6c6ccccc6)cc5)C4)CC3)cc1)=N[C@@H](Cc1ncco1)c1nnc(C)n1-2 [III-91],50 to 500
3,Cc1sc2c(c1C)C(c1ccc(N3CCC(CN4CC(COc5ccc([C@H]6c7ccc(O)cc7CC[C@H]6c6ccccc6)cc5)C4)CC3)cc1)=N[C@@H](Cc1ncco1)c1nnc(C)n1-2 [III-92],50 to 500
4,Cc1sc2c(c1C)C(c1ccc(C3CN(CCN4CC(COc5ccc([C@@H]6c7ccc(O)cc7CC[C@@H]6c6ccccc6)cc5)C4)C3)cc1)=N[C@@H](C)c1nnc(C)n1-2 [III-95],< 50
5,Cc1sc2c(c1C)C(c1ccc(C3CN(CCN4CC(COc5ccc([C@H]6c7ccc(O)cc7CC[C@H]6c6ccccc6)cc5)C4)C3)cc1)=N[C@@H](C)c1nnc(C)n1-2 [III-96],50 to 500
6,Cc1sc2c(c1C)C(c1ccc(N3CC4(CN(CC5CCN(c6ccc([C@@H]7c8ccc(O)cc8CC[C@@H]7c7ccccc7)cc6)CC5)C4)C3)cc1)=N[C@@H](C)c1nnc(C)n1-2 [III-97],< 50
7,Cc1sc2c(c1C)C(c1ccc(CCN3CC4(CCN(c5ccc([C@@H]6c7ccc(O)cc7CC[C@@H]6c6ccccc6)cc5)CC4)C3)cc1)=N[C@@H](C)c1nnc(C)n1-2 [III-98],< 50
8,Cc1sc2c(c1C)C(c1ccc(N3CC(CN4CC(Oc5ccc([C@@H]6c7ccc(O)cc7CC[C@@H]6c6ccccc6)cc5)C4)C3)cc1)=N[C@@H](C)c1nnc(C)n1-2 [III-99],50 to 500
9,Cc1sc2c(c1C)C(c1ccc(N3CC(CN4CC(Oc5ccc([C@H]6c7ccc(O)cc7CC[C@H]6c6ccccc6)cc5)C4)C3)cc1)=N[C@@H](C)c1nnc(C)n1-2 [III-100],50 to 500
10,Cc1sc2c(c1C)C(c1ccc(N3CC(CN4CC(COc5ccc([C@@H]6c7ccc(O)cc7CC[C@@H]6c6ccccc6)cc5)C4)C3)cc1)=N[C@@H](C)c1nnc(C)n1-2 [III-101],< 50
11,Cc1sc2c(c1C)C(c1ccc(N3CC(CN4CC(COc5ccc([C@H]6c7ccc(O)cc7CC[C@H]6c6ccccc6)cc5)C4)C3)cc1)=N[C@@H](C)c1nnc(C)n1-2 [III-102],50 to 500
12,Cc1sc2c(c1C)C(c1ccc(NCCN3CCN(CCOc4ccc([C@@H]5c6ccc(O)cc6CC[C@@H]5c5ccccc5)cc4)CC3)cc1)=N[C@@H](Cc1ncco1)c1nnc(C)n1-2 [III-103],< 50
13,Cc1sc2c(c1C)C(c1ccc(NCCN3CCN(CCOc4ccc([C@H]5c6ccc(O)cc6CC[C@H]5c5ccccc5)cc4)CC3)cc1)=N[C@@H](Cc1ncco1)c1nnc(C)n1-2 [III-104],< 50
14,Cc1sc2c(c1C)C(c1ccc(N3CCC(N4CCN(CCOc5ccc([C@@H]6c7ccc(O)cc7CC[C@@H]6c6ccccc6)cc5)CC4)CC3)cc1)=N[C@@H](Cc1ncco1)c1nnc(C)n1-2 [III-105],< 50
15,Cc1sc2c(c1C)C(c1ccc(N3CC(CN4CCC(COc5ccc([C@@H]6c7ccc(O)cc7CC[C@@H]6c6ccccc6)cc5)CC4)C3)cc1)=N[C@@H](C)c1nnc(C)n1-2 [III-106],< 50

# System: T-Rex 293 cells lacking increased expression of estrogen receptor alpha protein
# Test: Cellular growth inhibition assay, T-Rex 293 cells, (−) doxycycline
# Type: cell-based
# Conditions: T-REx-293, 72 h, Table 7-A; T-Rex 293 cells without doxycycline (lacking increased ERα expression); 72 hours; CellTiter-Glo; read-out: (−) Dox GI50
# In short: as §1
row,SMILES,GI50 [nM]
1,Cc1sc2c(c1C)C(c1ccc(OC3CC4(CCN(c5ccc([C@@H]6c7ccc(O)cc7CC[C@@H]6c6ccccc6)cc5)CC4)C3)cc1)=N[C@@H](C)c1nnc(C)n1-2 [III-90],> 2500
2,Cc1sc2c(c1C)C(c1ccc(N3CCC(CN4CC(COc5ccc([C@@H]6c7ccc(O)cc7CC[C@@H]6c6ccccc6)cc5)C4)CC3)cc1)=N[C@@H](Cc1ncco1)c1nnc(C)n1-2 [III-91],500 to 2500
3,Cc1sc2c(c1C)C(c1ccc(N3CCC(CN4CC(COc5ccc([C@H]6c7ccc(O)cc7CC[C@H]6c6ccccc6)cc5)C4)CC3)cc1)=N[C@@H](Cc1ncco1)c1nnc(C)n1-2 [III-92],50 to 500
4,Cc1sc2c(c1C)C(c1ccc(C3CN(CCN4CC(COc5ccc([C@@H]6c7ccc(O)cc7CC[C@@H]6c6ccccc6)cc5)C4)C3)cc1)=N[C@@H](C)c1nnc(C)n1-2 [III-95],50 to 500
5,Cc1sc2c(c1C)C(c1ccc(C3CN(CCN4CC(COc5ccc([C@H]6c7ccc(O)cc7CC[C@H]6c6ccccc6)cc5)C4)C3)cc1)=N[C@@H](C)c1nnc(C)n1-2 [III-96],50 to 500
6,Cc1sc2c(c1C)C(c1ccc(N3CC4(CN(CC5CCN(c6ccc([C@@H]7c8ccc(O)cc8CC[C@@H]7c7ccccc7)cc6)CC5)C4)C3)cc1)=N[C@@H](C)c1nnc(C)n1-2 [III-97],500 to 2500
7,Cc1sc2c(c1C)C(c1ccc(CCN3CC4(CCN(c5ccc([C@@H]6c7ccc(O)cc7CC[C@@H]6c6ccccc6)cc5)CC4)C3)cc1)=N[C@@H](C)c1nnc(C)n1-2 [III-98],500 to 2500
8,Cc1sc2c(c1C)C(c1ccc(N3CC(CN4CC(Oc5ccc([C@@H]6c7ccc(O)cc7CC[C@@H]6c6ccccc6)cc5)C4)C3)cc1)=N[C@@H](C)c1nnc(C)n1-2 [III-99],50 to 500
9,Cc1sc2c(c1C)C(c1ccc(N3CC(CN4CC(Oc5ccc([C@H]6c7ccc(O)cc7CC[C@H]6c6ccccc6)cc5)C4)C3)cc1)=N[C@@H](C)c1nnc(C)n1-2 [III-100],50 to 500
10,Cc1sc2c(c1C)C(c1ccc(N3CC(CN4CC(COc5ccc([C@@H]6c7ccc(O)cc7CC[C@@H]6c6ccccc6)cc5)C4)C3)cc1)=N[C@@H](C)c1nnc(C)n1-2 [III-101],50 to 500
11,Cc1sc2c(c1C)C(c1ccc(N3CC(CN4CC(COc5ccc([C@H]6c7ccc(O)cc7CC[C@H]6c6ccccc6)cc5)C4)C3)cc1)=N[C@@H](C)c1nnc(C)n1-2 [III-102],50 to 500
12,Cc1sc2c(c1C)C(c1ccc(NCCN3CCN(CCOc4ccc([C@@H]5c6ccc(O)cc6CC[C@@H]5c5ccccc5)cc4)CC3)cc1)=N[C@@H](Cc1ncco1)c1nnc(C)n1-2 [III-103],50 to 500
13,Cc1sc2c(c1C)C(c1ccc(NCCN3CCN(CCOc4ccc([C@H]5c6ccc(O)cc6CC[C@H]5c5ccccc5)cc4)CC3)cc1)=N[C@@H](Cc1ncco1)c1nnc(C)n1-2 [III-104],50 to 500
14,Cc1sc2c(c1C)C(c1ccc(N3CCC(N4CCN(CCOc5ccc([C@@H]6c7ccc(O)cc7CC[C@@H]6c6ccccc6)cc5)CC4)CC3)cc1)=N[C@@H](Cc1ncco1)c1nnc(C)n1-2 [III-105],50 to 500
15,Cc1sc2c(c1C)C(c1ccc(N3CC(CN4CCC(COc5ccc([C@@H]6c7ccc(O)cc7CC[C@@H]6c6ccccc6)cc5)CC4)C3)cc1)=N[C@@H](C)c1nnc(C)n1-2 [III-106],500 to 2500

# System: MCF7 cells (ATCC #HTB-22)
# Test: Cellular growth inhibition assay, MCF7 cells purchased from ATCC
# Type: cell-based
# Conditions: Homo sapiens, MCF7, 144 h, Table 8-A; MCF7 cells purchased from ATCC; six days; CellTiter-Glo; read-out: GI50
# In short: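 MCF7 cells in RPMI 1640 with 10% FBS and 0.2 U/ml insulin, seeded at 1,500 cells/well (ATCC) or 225 cells/well (ECACC). Compounds added 24 h later, then 6 days at 37° C. Viability by CellTiter-Glo 2.0 luminescence. GI50 from four-parameter fit.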
row,SMILES,GI50 [nM]
1,Cc1sc2c(c1C)C(c1ccc(OC3CC4(CCN(c5ccc([C@@H]6c7ccc(O)cc7CC[C@@H]6c6ccccc6)cc5)CC4)C3)cc1)=N[C@@H](C)c1nnc(C)n1-2 [III-90],50 to 500
2,Cc1sc2c(c1C)C(c1ccc(N3CCC(CN4CC(COc5ccc([C@@H]6c7ccc(O)cc7CC[C@@H]6c6ccccc6)cc5)C4)CC3)cc1)=N[C@@H](Cc1ncco1)c1nnc(C)n1-2 [III-91],< 50
3,Cc1sc2c(c1C)C(c1ccc(N3CCC(CN4CC(COc5ccc([C@H]6c7ccc(O)cc7CC[C@H]6c6ccccc6)cc5)C4)CC3)cc1)=N[C@@H](Cc1ncco1)c1nnc(C)n1-2 [III-92],50 to 500
4,Cc1sc2c(c1C)C(c1ccc(C3CN(CCN4CC(COc5ccc([C@@H]6c7ccc(O)cc7CC[C@@H]6c6ccccc6)cc5)C4)C3)cc1)=N[C@@H](C)c1nnc(C)n1-2 [III-95],< 50
5,Cc1sc2c(c1C)C(c1ccc(C3CN(CCN4CC(COc5ccc([C@H]6c7ccc(O)cc7CC[C@H]6c6ccccc6)cc5)C4)C3)cc1)=N[C@@H](C)c1nnc(C)n1-2 [III-96],50 to 500
6,Cc1sc2c(c1C)C(c1ccc(N3CC4(CN(CC5CCN(c6ccc([C@@H]7c8ccc(O)cc8CC[C@@H]7c7ccccc7)cc6)CC5)C4)C3)cc1)=N[C@@H](C)c1nnc(C)n1-2 [III-97],< 50
7,Cc1sc2c(c1C)C(c1ccc(CCN3CC4(CCN(c5ccc([C@@H]6c7ccc(O)cc7CC[C@@H]6c6ccccc6)cc5)CC4)C3)cc1)=N[C@@H](C)c1nnc(C)n1-2 [III-98],50 to 500
8,Cc1sc2c(c1C)C(c1ccc(N3CC(CN4CC(Oc5ccc([C@@H]6c7ccc(O)cc7CC[C@@H]6c6ccccc6)cc5)C4)C3)cc1)=N[C@@H](C)c1nnc(C)n1-2 [III-99],50 to 500
9,Cc1sc2c(c1C)C(c1ccc(N3CC(CN4CC(Oc5ccc([C@H]6c7ccc(O)cc7CC[C@H]6c6ccccc6)cc5)C4)C3)cc1)=N[C@@H](C)c1nnc(C)n1-2 [III-100],50 to 500
10,Cc1sc2c(c1C)C(c1ccc(N3CC(CN4CC(COc5ccc([C@@H]6c7ccc(O)cc7CC[C@@H]6c6ccccc6)cc5)C4)C3)cc1)=N[C@@H](C)c1nnc(C)n1-2 [III-101],50 to 500
11,Cc1sc2c(c1C)C(c1ccc(N3CC(CN4CC(COc5ccc([C@H]6c7ccc(O)cc7CC[C@H]6c6ccccc6)cc5)C4)C3)cc1)=N[C@@H](C)c1nnc(C)n1-2 [III-102],50 to 500
12,Cc1sc2c(c1C)C(c1ccc(NCCN3CCN(CCOc4ccc([C@@H]5c6ccc(O)cc6CC[C@@H]5c5ccccc5)cc4)CC3)cc1)=N[C@@H](Cc1ncco1)c1nnc(C)n1-2 [III-103],< 50
13,Cc1sc2c(c1C)C(c1ccc(NCCN3CCN(CCOc4ccc([C@H]5c6ccc(O)cc6CC[C@H]5c5ccccc5)cc4)CC3)cc1)=N[C@@H](Cc1ncco1)c1nnc(C)n1-2 [III-104],< 50
14,Cc1sc2c(c1C)C(c1ccc(N3CCC(N4CCN(CCOc5ccc([C@@H]6c7ccc(O)cc7CC[C@@H]6c6ccccc6)cc5)CC4)CC3)cc1)=N[C@@H](Cc1ncco1)c1nnc(C)n1-2 [III-105],< 50
15,Cc1sc2c(c1C)C(c1ccc(N3CC(CN4CCC(COc5ccc([C@@H]6c7ccc(O)cc7CC[C@@H]6c6ccccc6)cc5)CC4)C3)cc1)=N[C@@H](C)c1nnc(C)n1-2 [III-106],50 to 500
